Measurements reported in patent US20080146811A1, “Compounds and Methods For Treatment of Thrombosis” (priority 2004, published 2008).

Key:
Type in all cases: biochemical
factor XIa = factor XIa (Homo sapiens, UniProt P03951); experiment: In vitro inhibition of factor XIa
factor Xa = factor Xa (Homo sapiens, UniProt P00742); experiment: In vitro inhibition of factor Xa
thrombin = thrombin (Homo sapiens, UniProt P00734); experiment: In vitro inhibition of thrombin

factor Xa, sequence (P00742 235-488 limits assumed): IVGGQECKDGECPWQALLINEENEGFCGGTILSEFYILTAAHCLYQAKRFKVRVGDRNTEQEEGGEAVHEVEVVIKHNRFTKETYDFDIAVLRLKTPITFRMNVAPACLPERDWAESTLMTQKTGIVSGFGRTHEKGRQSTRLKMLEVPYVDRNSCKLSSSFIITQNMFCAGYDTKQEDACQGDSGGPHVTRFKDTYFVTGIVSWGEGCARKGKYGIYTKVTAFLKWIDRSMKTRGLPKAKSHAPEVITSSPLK
factor Xa, sequence (P00742 41-179 partner limits assumed): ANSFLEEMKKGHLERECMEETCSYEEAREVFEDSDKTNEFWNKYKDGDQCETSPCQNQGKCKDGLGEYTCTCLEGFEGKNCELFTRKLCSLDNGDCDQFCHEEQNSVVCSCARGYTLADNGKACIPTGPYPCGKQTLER
factor XIa, sequence (P03951 388-625 limits assumed): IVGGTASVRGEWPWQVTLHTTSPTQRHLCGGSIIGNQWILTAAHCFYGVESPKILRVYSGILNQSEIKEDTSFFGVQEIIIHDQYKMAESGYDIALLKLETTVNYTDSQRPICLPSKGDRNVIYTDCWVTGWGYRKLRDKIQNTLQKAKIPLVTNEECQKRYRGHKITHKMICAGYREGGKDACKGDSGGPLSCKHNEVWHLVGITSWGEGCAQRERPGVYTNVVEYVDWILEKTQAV

IC50 (factor XIa) [µM] | IC50 (factor Xa) [µM] | IC50 (thrombin) [µM] | Structure (SMILES)
3 | 54.7 | 20.2 | COC(=O)c1cccc(Oc2ccc([N+](=O)[O-])c(-n3cc(C(=N)N)c4ccccc43)c2)c1 [Compound 154]
6.27 | – | – | N=C(N)c1cn(C(=CC(=O)N2CCNCC2)c2ccccc2)c2ccccc12 [Compound 101]
1.36 | 35.1 | 60.2 | COC(=O)c1ccc(Br)cc1-n1cc(C(=N)N)c2ccccc21 [Compound 131]
1.62 | 15.2 | 43.7 | COC(=O)c1ccc(-c2cccc(O)c2)cc1-n1cc(C(=N)N)c2ccccc21 [Compound 135]
4.15 | 145 | 224 | N=C(N)c1cn(-c2ccccc2[N+](=O)[O-])c2ccccc12 [Compound 151]
1.24 | 80.8 | > 200 | N=C(N)c1cn(-c2cc(Cl)ccc2[N+](=O)[O-])c2c(C(=O)Nc3cccnc3)cccc12 [Compound 158]
0.1 | – | 3.78 | COC(=O)[C@H](CC(C)C)NC(=O)c1cccc2c(C(=N)N)cn(CC(=O)Nc3cccnc3)c12 [Compound 98]
280 | – | – | N=C(N)c1cn(-c2cc(Br)ccc2C(=O)NCc2ccccc2)c2ccccc12 [Compound 150]
134 | – | – | CON(C)C(=O)c1ccc(Br)cc1-n1cc(C(=N)N)c2ccccc21 [Compound 148]
11.3 | – | – | COC(=O)c1ccc(NC(=O)c2cccnc2)cc1-n1cc(C(=N)N)c2ccccc21 [Compound 142]
13.7 | – | – | N=C(N)c1cn(C(=CC(=O)N2CCCC(C(=O)O)C2)c2ccccc2)c2ccccc12 (stereo not shown) [Compound 111]
3.8 | 9.65 | 73.1 | COC(=O)c1ccc(-c2cccnc2)cc1-n1cc(C(=N)N)c2ccccc21 [Compound 139]
81.7 | – | – | N=C(N)c1cn(-c2cc(Br)ccc2C(=O)N2CCNCC2)c2ccccc12 [Compound 144]

The remaining lines, values behind:

Structure (SMILES) | IC50 (factor XIa) [µM] | IC50 (factor Xa) [µM] | IC50 (thrombin) [µM]
N=C(N)c1cn(CC(=O)Nc2cccnc2)c2c(/C=C/C(=O)Nc3cccnc3)cccc12 [Compound 54] | 1.99 | – | –
N=C(N)c1cn(CC(=O)Nc2cccnc2)c2c(Br)cccc12 [Compound 8] | 0.62 | 170 | > 200
N=C(N)c1cn(CC(=O)Nc2cccnc2)c2cc(CCC(N)=O)ccc12 [Compound 40] | 127 | – | –
CCOC(=O)C1CCCN(C(=O)Cn2cc(C(=N)N)c3cccc(C(=O)N4CCCC(C(=O)OCC)C4)c32)C1 (stereo not shown) [Compound 91] | 3.81 | – | –
COC(=O)c1ccc(NC(=O)Cn2cc(C(=N)N)c3cccc(C(=O)NCc4ccc(O)c(O)c4)c32)cc1 [Compound 95] | 0.87 | 82 | 4.2
Cc1c(O)cccc1NC(=O)Cn1cc(C(=N)N)c2ccccc21 [Compound 1] | 47.9 | 167 | > 200
N=C(N)c1cn(CC(=O)Nc2cccnc2)c2c(C(N)=O)cccc12 [Compound 84] | 1.47 | – | –
N=C(N)c1cn(CC(=O)Nc2ccc3ncccc3c2)c2c(Br)cccc12 [Compound 34] | 1.39 | – | –
N=C(N)c1cn(CC(=O)Nc2cccnc2)c2c(-c3cccc(O)c3)cccc12 [Compound 46] | 8.09 | – | –
N=C(N)c1cn(CC(=O)Nc2cc(F)cc(F)c2)c2c(Br)cccc12 [Compound 12] | 2.51 | – | –
C[C@@H](CNC(=O)Cn1cc(C(=N)N)c2ccccc21)c1ccccc1 [Compound 5] | 37.1 | 283 | > 200
N=C(N)c1cn(CC(=O)Nc2cccnc2)c2c(/C=C/C(N)=O)cccc12 [Compound 47] | 1.77 | – | > 200
N=C(N)c1cn(CC(=O)Nc2ccc(C(=O)O)cc2)c2c(C=CC(=O)NC(Cc3ccc(O)cc3)C(=O)O)cccc12 (stereo not shown) [Compound 70] | 0.042 | > 2 | > 200
COC(=O)c1ccc(NC(=O)Cn2cc(C(=N)N)c3cccc(/C=C/C(=O)NC4Cc5ccccc5C4)c32)cc1 [Compound 58] | 3.23 | – | –
N=C(N)c1cn(CC(=O)Nc2ccc(C(=O)O)cc2)c2c(/C=C/C(=O)N[C@H](C(=O)O)c3ccccc3)cccc12 [Compound 77] | 0.093 | 67.8 | > 200
COC(=O)c1ccc(NC(=O)Cn2cc(C(=N)N)c3cccc(/C=C/C(=O)N4CCc5cc(O)c(O)cc5C4)c32)cc1 [Compound 64] | 1.96 | – | –
